Measurements from US20170307640A1, “METHODS, KITS AND DEVICES FOR DETECTING BII-SPECTRIN, AND BREAKDOWN PRODUCTS THEREOF, AS BIOMARKERS FOR THE DIAGNOSIS OF NEURAL INJURY” (BANYAN BIOMARKERS, INC., priority 2012, published 2017).
Entries after “also recorded” stand apart in the source; their conditions may differ.

Experiments:
αII-spectrin = αII-spectrin breakdown pattern in challenged cerebrocortical cultures with or without inhibitors (Western blot); format: cell-based, rat; conditions: for αII-spectrin breakdown products after neurotoxin challenge alone: EDTA, MTX or NMDA alone; for αII-spectrin fragments (SBDP-150/SBDP-145, SBDP-120) after NMDA challenge with respective protease inhibitor: 300 μM NMDA + 30 μM SNJ-1945 or 20 μM IDN-6556
Protocol: (§1) All cultures are prepared in quadruplicate. Cerebrocortical cells harvested from 1-day old Sprague-Dawley rat brains are plated on poly-L-lysine coated 6-well culture plates (Erie Scientific, Portsmouth, N.H., USA) according to a previously cited method (Nath et al., 2000) at a density of 4.36×10^5 cells/mL. Cultures are maintained in Dulbecco's modified Eagle's medium (DMEM) with 10% fetal bovine serum in a humidified incubator in an atmosphere of 10% CO2 at 37° C. After 5 days in culture, the media is changed to DMEM with 5% horse serum. Subsequent media changes are performed three times a week. Experiments are performed on days 10 to 11 in vitro when astroglia have formed a confluent monolayer beneath morphologically mature neurons. All animal studies conform to the guidelines outlined in the Guide for the Care and Use of Laboratory Animals from the National Institutes of Health and were approved by the local IACUC.
(§2) Cells are collected and lysed with the same lysis buffer as described above.
(§3) The neuronal lysates are then centrifuged at 15000 g for 5 min at 4° C. to clear and remove insoluble debris, snap-frozen, and stored at −85° C. until use.
(§4) Protein concentrations of culture lysates are determined by bicinchoninic acid microprotein assays (Pierce Inc, Rockford, Ill., USA) with albumin standards. Protein balanced samples are prepared for sodium dodecyl sulfate-polyacrylamide gel electrophoresis (SDS-PAGE) in […] loading buffer containing 0.25 M Tris (pH 6.8), 0.2 M DTT, 8% SDS, 0.02% bromophenol blue, and 20% glycerol in distilled H2O. Twenty micrograms (20 μg) of protein per lane are routinely resolved by SDS-PAGE on 6% Tris/glycine gels (for spectrin protein) and/or 10-20% Tris/glycine gels for 2 hr at 120 V. Following electrophoresis, separated proteins are laterally transferred to polyvinylidene fluoride (PVDF) membranes in a transfer buffer containing 0.50 M glycine, 0.025 M Tris-HC1 (pH 8.3) and 10% methanol at a constant voltage of 20 V for 2 hr at 4° C. in a semi-dry transfer unit (Bio-Rad, Hercules, Calif.).
(§5) Tissue samples (20 μg) are subjected to electrophoresis, equal volumes of samples for SDS/PAGE are prepared in a 2×-fold loading buffer [0.25 M Tris (pH 6.8), 0.2 M DTT, 8% SDS, 0.02% bromophenol blue and 20% glycerol in distilled H2O]. Gels are run at 120 V for 2 hr in a mini-gel unit (Invitrogen Life). Protein bands are transferred to PVDF membrane on a semi-dry Trans-blot unit (Bio-Rad, Hercules, Calif.) at 20 V for 2 hrs. After electrotransfer, blotting membranes are blocked for 1 hr at ambient temperature in 5% non-fat milk in TBST [20 mM Tris/HCl (pH 7.4), 150 mM NaCl and 0.05% (w/v) Tween-20], then incubated with the primary monoclonal antibody in TBST/5% milk. Primary antibodies to be used include mouse anti all-spectrin (Affinity Res. Prod. Nottingham, UK), mouse monoclonal anti βII-spectrin (BD Transduction Laboratories, USA; cat # 612563) and rabbit anti βIII-spectrin (BETHYL Laboratories, Inc. TX, cat # A310-367A). The blots are then washed 3 times for 15 min with TBST and exposed to biotinylated secondary antibodies (Amersham Biosciences, U.K.) followed by a 30 min incubation with streptavidin-conjugated alkaline phosphatase. Colorimetric development is performed with a one-step 5-bromo-4-chloro-3-indolyl phosphate-reagent (Sigma-Aldrich, St. Louis, Mo.). The molecular weights of intact proteins and their potential BDPs are assessed by running along-side rainbow colored molecular weight standards (Amersham Biosciences, U.K.)
(§6) Rat cerebrocortical cell cultures are prepared as described above and treated with calpain inhibitor SNJ-1945 and caspase-3 inhibitor IDN-6556 along with different neurotoxic paradigms (FIG. 3).

[1] = tested on: rat cerebrocortical cultures; assay: Neurotoxin challenges of primary cerebrocortical cultures: morphology and βII-spectrin breakdown by Western blot; format: cell-based; conditions: for degeneration in soma and neurites of neuronal cultures under microscope: MTX at 3 hours, STS, EDTA, NMDA at 24 hours, vs untreated control; for βII-SBDP bands after neurotoxin challenge alone (Western blot): NMDA 300 μM, STS 0.5 μM, EDTA 2 mM, MTX 0.5 nM 3 hrs, no inhibitor
Protocol: as §1, §2, §3, §4, §5
Alternatively, neuronal cultures are treated with staurosporine (STS) for 24 hours or with NMDA. (FIG. 2)

βII-spectrin [2] = assay: Effects of calpain and caspase-3 inhibitors on βII-SBDP pattern in challenged cerebrocortical cultures (Western blot); format: cell-based, rat; conditions: for βII-SBDP bands after MTX challenge with inhibitor: 0.5 nM MTX 3 hrs + 20 μM IDN-6556 or 30 μM SNJ-1945; for βII-SBDP bands after NMDA challenge with inhibitor: 300 μM NMDA + 20 μM IDN-6556 or 30 μM SNJ-1945; for βII-SBDP bands after EDTA challenge with inhibitor: EDTA + 20 μM IDN-6556 or 30 μM SNJ-1945, pretreated 1 hr
Protocol: as §1, §2, §3, §4, §5, §6

βII-spectrin [3] = assay: βII-spectrin proteolytic fragmentation after brain cortex lysate digestion with calpain-2 and caspase-3; format: biochemical, rat
Protocol: as §5, with “Colorimetric development is performed with a one-step 5-bromo-4-chloro-3-indolyl phosphate-reagent (Sigma-Aldrich, St. Louis, Mo.).” left out

## CN[C@H](CC(=O)O)C(=O)O [NMDA, N-methyl-D-aspartate]
αII-spectrin
  αII-spectrin breakdown products after neurotoxin challenge alone: prominent calpain-mediated SBDP-150/SBDP-145, with minor bands of caspase-3-mediated SBDP-120
[1]
  degeneration in soma and neurites of neuronal cultures under microscope: significant degeneration
  βII-SBDP bands after neurotoxin challenge alone (Western blot): dominant signal of calpain-mediated βII-spectrin breakdown product (βII-SBDP) of 110 kDa and 85 kDa, with minimal caspase mediated βII-SBDP of 108 kDa and 80 kDa; also recorded: presence of all the βII-SBDPs (110, 108, 85 and 80 kDa)

## C[C@H](NC(=O)C(=O)Nc1ccccc1C(C)(C)C)C(=O)N[C@@H](CC(=O)O)C(=O)COc1c(F)c(F)cc(F)c1F [IDN-6556]
αII-spectrin
  αII-spectrin fragments (SBDP-150/SBDP-145, SBDP-120) after NMDA challenge with respective protease inhibitor: strongly inhibited
αII-spectrin; EDTA + IDN-6556
  αII-spectrin caspase-mediated SBDP-120 after EDTA challenge with inhibitor: absence
βII-spectrin [2]
  βII-SBDP bands after MTX challenge with inhibitor: βII-SBDPs of 110 kDa and 85 kDa are observed
  βII-SBDP bands after NMDA challenge with inhibitor: much weaker
  βII-SBDP bands after EDTA challenge with inhibitor: no βII-SBDPs

## C=CC[C@H](C)[C@H](C)C[C@@H](O)[C@H](O)[C@@H]1CC[C@@]2(C)O[C@@]3(C)C[C@@]4(C)O[C@H]5/C=C\C[C@H]6O[C@H]7C[C@H]8O[C@H]9C[C@@]%10(C)O[C@@](C)([C@@H]%11CC[C@H]%12O[C@@]%13(C)C[C@H]%14O[C@@]%15(C)C[C@H]%16O[C@@]%17(C)C[C@@H](O)[C@H]([C@@H]%18O[C@H]%19[C@H](O)[C@@H](O)[C@H](C[C@H](O)C[C@@H](O)[C@@H]%20O[C@H]%21[C@H](O)[C@@H](O)[C@H]([C@@H]%22O[C@@H]%23[C@H](O)[C@H]%24O[C@H]%25C[C@H]%26O[C@@H](C[C@H](O)[C@@H](O)[C@H]%27O[C@H]%28[C@H](O)[C@H]%29O[C@H]%30C[C@H]%31O[C@H]%32[C@@H](O)[C@@H](O)[C@H]([C@H](C)[C@H](O)[C@H](C)CC[C@H](OS(=O)(=O)O)[C@H](O)[C@H](C)C[C@@H](O)C(=C)/C(C)=C/CO)O[C@@H]%32[C@H](O)C[C@]%31(C)O[C@@H]%30C[C@]%29(C)O[C@@H]%28C[C@H]%27O)[C@H](OS(=O)(=O)O)[C@H](O)[C@@H]%26O[C@@H]%25C[C@@H]%24O[C@H]%23[C@H](O)[C@H]%22O)O[C@H]%21C[C@H]%20O)O[C@H]%19C[C@H]%18O)O[C@@H]%17[C@H](O)[C@]%16(C)O[C@@H]%15CC[C@]%14(C)O[C@@H]%13C[C@@H]%12O%11)[C@H](O)C[C@@H]%10O[C@]9(C)CC[C@]8(C)O[C@]7(C)C[C@@H]6O[C@@H]5C[C@@H]4O[C@@H]3C[C@@H]2O1 [MTX, maitotoxin]
αII-spectrin
  αII-spectrin breakdown products after neurotoxin challenge alone: presence of the prominent calpain-mediated SBDP-145 kDa band
[1]
  degeneration in soma and neurites of neuronal cultures under microscope: significant degeneration
  βII-SBDP bands after neurotoxin challenge alone (Western blot): strong βII-SBDPs of 110 kDa and 85 kDa bands; also recorded: βII-SBDPs of 110 kDa and 85 kDa are observed
βII-spectrin [3]; brain lysates treated with MTX and EDTA, comparators in FIG. 8
  βII-SBDPs generated by EDTA and MTX treatments used as controls for apoptotic and necrotic injury: 110/85

## COCCOCCOC(=O)N[C@@H](CC(C)C)C(=O)N[C@@H](Cc1ccccc1)C(=O)C(=O)NC1CC1 [SNJ-1945]
αII-spectrin
  αII-spectrin fragments (SBDP-150/SBDP-145, SBDP-120) after NMDA challenge with respective protease inhibitor: strongly inhibited
αII-spectrin; MTX + SNJ-1945
  αII-spectrin calpain-mediated SBDP-145 after MTX challenge with inhibitor: absence
βII-spectrin [2]
  βII-SBDP bands after MTX challenge with inhibitor: no βII-SBDPs observed
  βII-SBDP bands after NMDA challenge with inhibitor: only βII-SBDP-108 kDa band
  βII-SBDP bands after EDTA challenge with inhibitor: strong βII-SBDP 108 kDa/weak 80 kDa bands

## CN[C@@H]1C[C@H]2O[C@@](C)([C@@H]1OC)n1c3ccccc3c3c4c(c5c6ccccc6n2c5c31)C(=O)NC4 [STS, staurosporine]
[1]
  degeneration in soma and neurites of neuronal cultures under microscope: significant degeneration
  βII-SBDP bands after neurotoxin challenge alone (Western blot): two prominent βII-SBDP bands of 108 kDa and 80 kDa

B1: Calpain: purified protease human calpain-2 (BD Bioscience; Catalogue no. 208715) (protein, UniProt P17655 20-700, looked up)
Calpain-2 catalytic subunit: SHDRAIKYLNQDYEALRNECLEAGTLFQDPSFPAIPSALGFKELGPYSSKTRGIEWKRPTEICADPQFIIGGATRTDICQGALGDCWLLAAIASLTLNEEILARVVPLNQSFQENYAGIFHFQFWQYGEWVEVVVDDRLPTKDGELLFVHSAEGSEFWSALLEKAYAKINGCYEALSGGATTEGFEDFTGGIAEWYELKKPPPNLFKIIQKALQKGSLLGCSIDITSAADSEAITFQKLVKGHAYSVTGAEEVESNGSLQKLIRIRNPWGEVEWTGRWNDNCPSWNTIDPEERERLTRRHEDGEFWMSFSDFLRHYSRLEICNLTPDTLTSDTYKKWKLTKMDGNWRRGSTAGGCRNYPNTFWMNPQYLIKLEEEDEDEEDGESGCTFLVGLIQKHRRRQRKMGEDMHTIGFGIYEVPEELSGQTNIHLSKNFFLTNRARERSDTFINLREVLNRFKLPPGEYILVPSTFEPNKDGDFCIRVFSEKKADYQAVDDEIEANLEEFDISEDDIDDGFRRLFAQLAGEDAEISAFELQTILRRVLAKRQDIKSDGFSIETCKIMVDMLDSDGSGKLGLKEFYILWTKIQKYQKIYREIDVDRSGTMNSYEMRKALEEAGFKMPCQLHQVIVARFADDQLIIDFDNFVRCLVRLETLFKIFKQLDPENTGTIELDLISWLCFSVL
βII-spectrin [3]; intact 260 kDa βII-spectrin, calpain-2 25° C. 30 min, caspase-3 37° C. 4 hrs
  βII-SBDPs generated by in vitro protease digestion of cortical tissue lysate: prominent 110 and 85 kDa βII-SBDPs in addition to a number of non-specific high molecular bands
